# Measured values published in ChEMBL document CHEMBL5365507, “New Horizons in Cancer Treatment: A Closer Look at Novel PI3Kα Inhibitors” (ACS Med Chem Lett, 2023).
# Experiments:
# [1] = target: T1, Phosphatidylinositol 4,5-bisphosphate 3-kinase catalytic subunit alpha isoform (Homo sapiens, UniProt P42336); assay: Inhibition of PIK3CA (unknown origin) using diC8-PIP2 as substrate preincubated for 30 mins followed by substrate addition and measured after 60 mins by ADP-Glo assay
# [2] = target: T1, Phosphatidylinositol 4,5-bisphosphate 3-kinase catalytic subunit alpha isoform; assay: Inhibition of PIK3CA (unknown origin) expressed in MCF-10A cells incubated for 2 hrs by HTRF method; format: cell-based
# T1 sequence (P42336 whole entry, canonical isoform): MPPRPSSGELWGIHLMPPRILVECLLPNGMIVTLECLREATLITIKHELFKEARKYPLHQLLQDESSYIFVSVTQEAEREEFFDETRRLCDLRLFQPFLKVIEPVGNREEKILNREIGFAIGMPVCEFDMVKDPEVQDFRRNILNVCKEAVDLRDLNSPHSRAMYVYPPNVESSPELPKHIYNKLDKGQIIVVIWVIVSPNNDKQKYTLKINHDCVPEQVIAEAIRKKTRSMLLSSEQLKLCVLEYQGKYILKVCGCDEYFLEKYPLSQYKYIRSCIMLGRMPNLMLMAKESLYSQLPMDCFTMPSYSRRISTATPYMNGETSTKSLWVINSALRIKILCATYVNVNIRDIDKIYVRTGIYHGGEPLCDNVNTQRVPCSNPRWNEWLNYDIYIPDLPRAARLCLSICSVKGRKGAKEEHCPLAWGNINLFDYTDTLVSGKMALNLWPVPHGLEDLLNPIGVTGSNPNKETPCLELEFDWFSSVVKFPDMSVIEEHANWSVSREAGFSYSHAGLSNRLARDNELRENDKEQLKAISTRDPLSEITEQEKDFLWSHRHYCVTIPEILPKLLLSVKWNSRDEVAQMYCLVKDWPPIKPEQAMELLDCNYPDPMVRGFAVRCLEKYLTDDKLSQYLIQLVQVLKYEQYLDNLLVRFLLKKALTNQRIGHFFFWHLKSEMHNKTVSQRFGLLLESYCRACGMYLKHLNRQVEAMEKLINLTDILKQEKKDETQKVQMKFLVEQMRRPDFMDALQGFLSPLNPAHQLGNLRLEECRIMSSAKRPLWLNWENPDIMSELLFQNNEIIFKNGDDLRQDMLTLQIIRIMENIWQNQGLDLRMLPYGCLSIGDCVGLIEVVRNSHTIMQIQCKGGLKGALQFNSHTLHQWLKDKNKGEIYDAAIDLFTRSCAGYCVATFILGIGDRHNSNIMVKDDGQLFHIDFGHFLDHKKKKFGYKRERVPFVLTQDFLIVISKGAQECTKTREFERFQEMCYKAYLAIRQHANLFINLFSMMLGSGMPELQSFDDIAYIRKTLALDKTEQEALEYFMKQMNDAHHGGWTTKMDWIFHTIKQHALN
Compound,IC50 [1],IC50 [2]
Cc1ccccc1Nc1ncc(C(=O)NCC2CC(F)(F)C2)cc1NC(=O)c1cc(F)cc(C(F)(F)F)c1,100 nM,1000 nM
Cc1ccccc1Nc1ncc(C(=O)NCc2ccnn2C)cc1NC(=O)c1cc(F)cc(C(F)(F)F)c1,100 nM,1000 nM
Cc1ccccc1Nc1ncc(C(=O)NCc2ccn(C)n2)cc1NC(=O)c1cc(F)cc(C(F)(F)F)c1,100 nM,1000 nM
Cc1ccccc1Nc1ncc(C(=O)NCc2ccnn2C)cc1NC(=O)c1csc2ccccc12,100 nM,1000 nM
Cc1ccccc1Nc1ncc(-c2cncc(C#N)c2)cc1NC(=O)c1cc(F)cc(C(F)(F)F)c1,100 nM,1000 nM

# Second part, the compound after the results:
IC50 [1],IC50 [2],Compound
100 nM,1000 nM,Cc1ccccc1Nc1ncc(C(=O)NC2CC(F)(F)C2)cc1NC(=O)c1cc(F)cc(C(F)(F)F)c1
≤ 100 nM,1000 nM,Cc1ccccc1Nc1ncc(C(=O)NC2C[S+]([O-])C2)cc1NC(=O)c1csc2ccccc12 (centres undefined)
≤ 100 nM,5000 nM,Cc1ccccc1Nc1ncc(C(=O)NCc2nccs2)cc1NC(=O)c1csc2ccccc12
100 nM,≤ 1000 nM,Cc1ccccc1Nc1ncc(C(=O)Nc2ccncc2)cc1NC(=O)c1cc(F)cc(C(F)(F)F)c1
100 nM,1000 nM,Cc1ccccc1Nc1ncc(C(=O)NCc2ccc(Cl)cc2)cc1NC(=O)c1csc2ccccc12
≤ 100 nM,1000 nM,Cc1ccccc1Nc1ncc(C(=O)NC2CS(=O)(=O)C2)cc1NC(=O)c1csc2ccccc12
≤ 100 nM,≤ 1000 nM,Cc1ccccc1Nc1ncc(C(=O)NC2CS(=O)(=O)C2)cc1NC(=O)c1cc(F)cc(C(F)(F)F)c1
